From patent US20240182521A1, “CELL-PENETRATING PEPTIDE VARIANT AND USE THEREOF” (REGEN INNOPHARM INC., priority 2021, published 2024) come the findings set out here.

One experiment concerns fibroblast 3T3 cells. Kind of experiment: Cell migration across a scratched boundary, LPX105 variants. In kind it is cell-based. Conditions: 72 hours after treatment, control group PBS. Here is the method:
Using the method described in Example 1-2 above, the cell migration promotion of LPX105, LPH105, and LPHS105 was confirmed. Specifically, in order to confirm the cell migration effect, fibroblast 3T3 cells were treated with LPX105, LPH105, and LPHS105 peptides, incubated for 1 hour, and then washed. Thereafter, the migration of cells across a scratched boundary was measured 72 hours after treatment. The number of cells that migrated across a scratch line was measured by image analysis using ImageJ.

Experiment [1] has as its system diabetes model mice (db/db). Kind of experiment: Diabetic wound healing of LPX105 variants in db/db mice. Conditions: 3 μg daily for 10 days, control group PBS. The format is in vivo, mouse. Here is the method: By using the method described in Example 2-4 above, the diabetic wound healing effect of LPX105, LPH105, and LPHS105 was evaluated. Specifically, the skins of diabetes model mice (db/db) (n=14 each) were punched with an 8 mm diameter puncher and treated with LPX105, LPH105 and LPHS105 (3 μg) or PBS daily for 10 days and subjected to wound dressing. The wound healing effect was confirmed by analyzing an initial wound area and a re-epithelialization area using ImageJ (mean SEM n=3, *; p<0.05).

The test system of experiment [2] is Human umbilical vein endothelial cells (Huvec). Nature of the experiment: Blood vessel formation on cytokine-free Matrigel. In kind it is cell-based. Conditions: Huvec treated for one day. An excerpt:
Human umbilical vein endothelial cells (Huvec) were dispensed on a cytokine-free Matrigel and treated with LPX101 for one day (n=3, 1 expt). […], the blood vessel formation was confirmed under a microscope, and blood vessel formation parameters including the number of nodules, the number of intravascular junctions, and the number of master segments were quantified.

The subject of experiment [3] is diabetes model mice (db/db). Nature of the experiment: Diabetic wound healing in diabetes model mice (db/db). The format is in vivo, mouse. Here is the method: (§1) The skins of wild type (WT) mice and diabetes model mice (db/db) (n=14 each) were punched with an 8 mm diameter puncher and treated with LPX101 (2 mg/ml, 20 μl) or PBS daily for 14 days and subjected to wound dressing. The wound healing effect was confirmed by analyzing an initial wound area and a re-epithelialization area using ImageJ (mean SEM n=3, *; p<0.05). In addition, the wound healing effect in wounds treated with LPX101 was histologically evaluated. Specifically, diabetic mice (db/db) were stained with H/E or trichrome at 7 and 14 days after wound induction and then confirmed under a microscope, and re-epithelialization and granulation tissue were quantified using ImageJ (n=3, ***; p<0.001). In addition, the wounds of db/db mice were treated with LPX101, and the tissue epidermis after 14 days was histologically analyzed.
(§2) The wound healing effects of LPX101, LPX102, and LPX103 were confirmed in an STZ-induced diabetic mouse model. […] Thereafter, according to a schedule shown in FIG. 12A, PBS (negative control), EGF (positive control) 50 μg/ml, LPX101 2 mg/ml (20 μl), LPX102 and LPX103 (2 mg/ml (20 μl)) were treated, respectively, and then the effect of wound healing in a diabetes-induced mouse model was confirmed through imaging, re-epithelialization, and diabetes phenotypes (hyperglycemia and impaired glucose tolerance test (IPGTT)) (n=10 for each group, *; p<0.05). Additionally, to compare the regenerative activity of LPX peptides in a diabetic mouse model, wound healing kinetics measured by a % non-epithelialized area to an initial wound area (n=8 for each group), and quantification of re-epithelialization analyzed as % of a re-epithelialized area to the initial wound area were confirmed.

For experiment [4], the system named is NIH3T3 cells. Kind of experiment: Cell migration effects, Table 1. In kind it is cell-based, mouse. Conditions: vehicle = 1. The procedure: Various variants of the LPX peptides were prepared as illustrated in FIG. 18. Specifically, various constructs (26 constructs including 101) were prepared by adding various mutations (substitution of a CPP region, amino acid mutation of an RNA binding portion and a zinc finger structure, and addition of his-tag) to the structure of LPX101 in FIG. 19 (FIG. 20).

Another experiment deals with NIH3T3 cell line. Nature of the experiment: Cell growth (relative proliferation rate vs control, 3 days). As to conditions: concentrations of 2 μM and 5 μM; 3 days after treatment. The format is cell-based, mouse. The procedure: (§3) An effect of LPX101 peptide on cell growth was confirmed in a NIH3T3 cell line, and the effects of LPX101, LPX102, and LPX103 peptides on cell migration were confirmed in diabetic human epidermal keratinocyte (DHEK) as a diabetic cell line. Specifically, mMSC or NIH3T3 cells were treated with the LPX101 peptide, incubated for 1 hour, and then washed. A % increase in cell growth by LPX treatment was confirmed by measuring the number of cells after 3 days of treatment and calculating a relative proliferation rate as % compared to a control group (n=3). Additionally, in order to confirm the cell migration effect, DHEK cells were treated with LPX101, LPX102, and LPX103 peptides, incubated for 1 hour, and then washed. Thereafter, the migration of cells across a scratched boundary was measured 72 hours after treatment. The number of cells that migrated across a scratch line was measured by image analysis using ImageJ.

Experiment [5] concerns diabetic human epidermal keratinocyte (DHEK). Nature of the experiment: Cell migration across a scratched boundary. In kind it is cell-based. Here is the method: as §3
The test system of experiment [6] is NIH3T3 cell line and mouse mesenchymal stem cells (mMSCs). Nature of the experiment: Cell penetrating effect (FACS, confocal microscopy) of FITC-attached peptides. The format is cell-based. An excerpt: A cell penetrating effect was confirmed in penetrating peptides LPX101 (SEQ ID NO: 11), LPX102 (SEQ ID NO: 12), and LPX103 (SEQ ID NO: 13) having three structures including a signal peptide, an RNA binding affinity residue, and an RNA binding residue (FIG. 1), and two zinc finger motifs. Specifically, in order to measure cell penetrating efficiency, respective peptides that may have been attached to the cell membrane surface were removed by applying a Heparin & Trypsin washing method used in a Keplan group [Kaplan I M, Wadia J S, Dowdy S F (2005) Cationic TAT peptide transduction domain enters cells by macropinocytosis. J Controlled release 102: 247-253] to a NIH3T3 cell line and mouse mesenchymal stem cells (mMSCs). […] Then, the cells were washed three times with PBS and detached with trypsin, and then FACS analysis was performed. In addition, whether each peptide actually existed in the nucleus or cytoplasm of the cell was confirmed by confocal microscopy after 18 hours of peptide treatment, and membrane binding was labeled with PKH.

In experiment [7] the test system is NIH3T3 cells. Kind of experiment: Glycolysis, extracellular acidification rate (ECAR), Seahorse XF analyzer. The format is cell-based, mouse. The procedure: NIH3T3 cells were incubated in a glucose-free medium for 1 day and then sequentially treated with glucose, oligomycin, and 2-DG, and an extracellular acidification rate (ECAR) was measured as a measure of lactate production using a Seahorse extracellular flux (XF) analyzer and quantification and profile of ECAR were confirmed in cells treated with LPX peptide (Mean SEM n=3, *; p<0.05).

Experiment [8] has as its system diabetic mouse model (db/db). Kind of experiment: Diabetic wound healing by combined treatment with EGF. The format is in vivo. As to conditions: db/db mice, 8 mm punch wound. An excerpt:
The diabetic wound healing effect by combined treatment with LPX peptide and EGF was confirmed.

The next experiment has as its system diabetic mice (db/db). Nature of the experiment: Histological evaluation of wound re-epithelialization (H/E, day 10). In kind it is in vivo, mouse. Conditions: day 10 after initial injury. An excerpt:
In order to histologically evaluate wound re-epithelialization in diabetic mice by LPX peptides 101, 102 and 103, wound tissues from diabetic mice (db/db) treated by each LPX were H/E stained on day 10 after initial injury and confirmed under a microscope (50X and 100x).

Another experiment concerns wild type (WT) mice. Kind of experiment: Skin punch wound healing in wild type mice. In kind it is in vivo, mouse. Conditions: 2 mg/ml, 20 μl daily for 14 days. Here is the method: as §1
The subject of experiment [9] is STZ-induced diabetic mouse model. Kind of experiment: Wound healing in STZ-induced diabetic mouse model. In kind it is in vivo. As to conditions: 2 mg/ml (20 μl). The procedure: as §2

As for “LPH105: LPX105 variant of SEQ ID NO: 39, Histidine tag insertion (HHHHHHRRPKGKSMQKRRSKGDRCYNCGGLDHHAKECKL; LPH105)”, the cell migration entry in the experiment on fibroblast 3T3 cells was “increased cell migration more than LPX105”. For the same substance, the diabetic wound healing entry in experiment [1] was “accelerated the diabetic wound healing more significantly than LPX105”.
“LPHS105: LPX105 variant of SEQ ID NO: 40, zinc finger region mutations and Histidine tag insertion (HHHHHHRRPKGKSMQKRRSKGDRCYNCGELDHHAKECKL; LPHS105)”: the cell migration result in the experiment on fibroblast 3T3 cells is given as “increased cell migration more than LPX105”. For the same substance, in experiment [1], the diabetic wound healing result is reported as “accelerated the diabetic wound healing more significantly than LPX105”.
For “LPX101: cell-penetrating peptide consisting of amino acid sequence SEQ ID NO: 11 (RRPKGKSMQKRRSKGDRCYNCGGLDHHAKECKLPPQPKKCHFCQSISHMVASCPLKAQQK; LPX101)”, in [2], the “blood vessel formation (capillary vascular rings)” value is reported as “form more mature capillary vascular rings”. In addition, the “healing of diabetic wounds” value in experiment [3] (db/db mice, 2 mg/ml, 20 μl daily for 14 days) is listed as “significantly accelerated the healing of diabetic wounds”. Also, the “granulation tissue, day 7” value in [3] (db/db mice, day 7 (middle of the healing process)) is recorded as “early formation of granulation tissue”. In addition, the “remodeling of the regenerated wound epithelium” value in experiment [3] (db/db mice, day 14) is “accelerated”. The “granulation tissue, day 14” value in experiment [3] (db/db mice, day 14 (end of the healing process)) is recorded as “early shrinkage (remodeling) of granulation tissue”. Besides, the “hyperkeratosis, parakeratosis and acanthosis of the epidermis” value in experiment [3] (db/db mice, histological analysis on day 14) was “reduced early”. For the same substance, the “Effects on cell migration (3 expts)” value came to 1.4 in the experiment with NIH3T3 cells [4] (1 uM) and 1.3 in the experiment on NIH3T3 cells [4] (5 uM). For the same substance, the cell growth entry with NIH3T3 cell line is on record as “promoted cell growth”. Further, in experiment [5] (72 hours after treatment), the “migration of DHEK cells” value is “promoted the migration of DHEK cells”. Also, the cell permeability entry in experiment [6] (concentrations of 2 μM and 5 μM) is given as “high cell permeability”. The intracellular localization entry in [6] (confocal microscopy after 18 hours of peptide treatment) is given as “most of LPX101 was present in the cytoplasm”. In addition, the “glucose metabolism (glycolysis), ECAR” value with NIH3T3 cells [7] was “promoted glucose metabolism (glycolysis)”. Moreover, in [8], the “diabetic wound healing effect in combination with EGF” value is reported as “improved when treated in combination with EGF”. In the experiment on diabetic mice (db/db), the “re-epithelialization of diabetic wounds (histology)” value is listed as “significantly improved re-epithelialization”. In addition, the wound healing result in the experiment on wild type (WT) mice is recorded as “accelerated wound healing”.
Consider “LPX102: cell-penetrating peptide consisting of amino acid sequence SEQ ID NO: 12 (GSERRPKGKSMQKRRSKGDRCYNCGGLDHHAKECKLPPQPKKCHFCQSISHMVASCPL; LPX102)”, for which the “diabetic wound healing effect (wound healing kinetics and re-epithelialization) compared to LPX101” value in experiment [3] (db/db mouse model) is listed as “better diabetic wound healing effect than LPX101”. Also, the “Effects on cell migration (3 expts)” value with NIH3T3 cells [4] (1 uM) and with NIH3T3 cells [4] (5 uM) was 1.2 throughout. In experiment [9], the “wound healing effect compared to LPX101” value is “better effects than LPX101”. In [5] (DHEK cells, at lower concentrations than LPX101), the “cell migration compared to LPX101” value is “promoted cell migration to a similar extent to LPX101”. The “cell permeability compared to LPX101” value in experiment [6] (compared to LPX101 (2 μM)) is recorded as “high cell permeability similar to LPX101”. The “glucose metabolism (glycolysis), ECAR” value in the experiment on NIH3T3 cells [7] was “promoted glucose metabolism (glycolysis)”. Further, the “diabetic wound healing effect in combination with EGF” value in [8] is on record as “improved when treated in combination with EGF”. Further, the “re-epithelialization of diabetic wounds (histology)” value in the experiment on diabetic mice (db/db) was “significantly improved re-epithelialization”.
In the case of “LPX104: cell-penetrating peptide of SEQ ID NO: 14, containing SEQ ID NO: 7 with an RNA binding site in zinc finger 2 region (ERRPKGKSMQKRRSKGDRCYNCGGLDHHAKECKLPPQPKKCH; LPX104)”, the “Effects on cell migration (3 expts)” value in the experiment on NIH3T3 cells [4] (1 uM) and in the experiment on NIH3T3 cells [4] (5 uM) was 1.3 each time.
Regarding “LPX105: cell-penetrating peptide of SEQ ID NO: 37 (RRPKGKSMQKRRSKGDRCYNCGGLDHHAKECKL; LPX105)”, the cell migration entry with fibroblast 3T3 cells is given as “significantly promoted cell migration”. For the same substance, the diabetic wound healing entry in experiment [1] is recorded as “accelerated the diabetic wound healing”.
